Assay results taken from PubChem BioAssay (NCI).
Where “and” joins values, the source holds several entries; their conditions need not be identical. Equal values may be shown once.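 Tested at 5 concentrations; 48 h exposure; 96-well plates; endpoints linearly interpolated, else capped at highest concentration. GI50 is the concentration that inhibits growth by half. TGI marks complete inhibition of growth.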

What was measured:
Test in all cases: NCI tumour cell line growth inhibition, 48 h
786-0 renal = system: 786-0 renal
HCC-2998 colon = system: HCC-2998 colon
HOP-62 NSCLC = system: HOP-62 NSCLC
K-562 leukemia = system: K-562 leukemia
MALME-3M melanoma = system: MALME-3M melanoma
NCI-H23 lung = system: NCI-H23 lung
NCI-H460 lung = system: NCI-H460 lung
NCI-H522 lung = system: NCI-H522 lung
RPMI-8226 leukemia = system: RPMI-8226 leukemia
SK-OV-3 ovarian = system: SK-OV-3 ovarian
HS 578T breast = system: HS 578T breast
HOP-92 NSCLC = system: HOP-92 NSCLC

| Structure (SMILES) | TGI (786-0 renal) [µM] | TGI (HCC-2998 colon) [µM] | TGI (HOP-62 NSCLC) [µM] | TGI (K-562 leukemia) [µM] | TGI (MALME-3M melanoma) [µM] | TGI (NCI-H23 lung) [µM] | TGI (NCI-H460 lung) [µM] | TGI (NCI-H522 lung) [µM] | TGI (RPMI-8226 leukemia) [µM] | TGI (SK-OV-3 ovarian) [µM] | TGI (HS 578T breast) [µM] | TGI (HOP-92 NSCLC) [µM] | GI50 (HCC-2998 colon) | GI50 (NCI-H23 lung) [µM] | GI50 (NCI-H460 lung) | GI50 (K-562 leukemia) [µM] |
| --- | --- | --- | --- | --- | --- | --- | --- | --- | --- | --- | --- | --- | --- | --- | --- | --- |
| COc1ccc2c(OC)c3ccoc3nc2c1O | > 100 | > 100 | > 100 | > 100 | > 100 | > 100 | > 100 | > 100 | > 100 | > 100 |  |  |  |  |  |  |
| CC1CCCc2c(-c3ccc(Cl)cc3)nc(N)c(C#N)c21 (stereo not given) | > 100 |  | 63 | 93.5 | > 100 | 99.4 | 81.4 |  | 37.9 | 83.6 | > 100 |  |  |  |  |  |
| CC(=NNC(=S)Nc1ccccc1C)c1cccc(C(C)=NNC(=S)Nc2ccccc2C)n1 | > 100 | > 100 | > 100 | > 100 | 76.9 | > 100 | > 100 |  | > 100 | > 100 |  | > 100 |  |  |  |  |
| O=C1/C(=C/c2cccc([N+](=O)[O-])c2)COc2ccccc21 | 3.16 | > 23.4 | > 30.4 | > 28.5 | > 50.6 | 18.2 | > 25.2 | 3.1 |  | > 62.8 |  | > 72.8 |  |  |  |  |
| C1=CCN(c2ccccc2)CC1 |  | > 100 |  | > 100 | 46.8 | > 100 | > 100 | 30.4 | > 100 | > 100 |  | 61.6 |  |  |  |  |
| CCC(=O)N(c1ccccc1)C(C)CN1CCC(O)(c2ccccc2)CC1 (stereo not given) | > 100 |  | > 100 | > 100 | > 100 | > 100 |  | > 100 | > 100 | > 100 | > 100 | > 100 |  |  |  |  |
| CCN(CC)CCCCC1CCN(CC(=O)N2c3ccccc3NC(=O)c3ccccc32)CC1 | > 100 | > 100 | > 100 | > 100 | > 100 | > 100 |  | > 100 | > 100 | > 100 |  | > 100 |  |  |  |  |
| NN/C(=N\S(=O)(=O)c1cc(Cl)c(Oc2ccc([N+](=O)[O-])cc2Cl)c(Cl)c1)Nc1ccc(Cl)cc1 | 36.8 |  | 41 | > 100 | 37.2 | 31.4 | 31.9 |  | > 100 | > 100 |  | 38.9 |  |  |  |  |
| COC(=O)/C=C/c1cc(OC)c2c(c1)C(C(=O)OC)C(c1ccc(OC)c(OC)c1)O2 (stereo not given) | > 100 | > 100 | > 100 | > 100 | > 100 | > 100 | > 100 | > 100 | > 100 | > 100 |  | > 100 | > 100 µM and 38.6 µM | > 100 | 48.6 µM and 15.7 µM |  |
| Nc1ccc(N=Nc2ccc(/C=C/c3ccc(N=Nc4ccc(N)c5ccc(S(=O)(=O)O)cc45)cc3S(=O)(=O)O)c(S(=O)(=O)O)c2)c2cc(S(=O)(=O)O)ccc12 |  | > 100 | > 100 | > 100 | > 100 | > 100 | > 100 | > 100 | > 100 | > 100 |  | > 100 |  |  |  |  |
| CC(=O)OC1[C@H]2c3cc4c(cc3CN3CCC(C[C@@H]1OC(C)=O)C23)OCO4 (stereo not given in full) | > 75 | > 75 | > 75 | > 75 | > 75 | > 75 | > 75 | > 75 | > 75 | > 75 |  |  |  |  |  |  |
| CCCCCCC(N)(CCCCCC)C(=O)Nn1c(C)ccc1C | > 100 | > 100 | > 100 | > 100 | > 100 | > 100 | > 100 | > 100 | > 100 | > 100 | > 100 |  |  |  |  |  |
| COc1cc(C2c3cccc4cccc(c34)C3CCC(=O)N32)cc(O)c1O (stereo not given) | > 50 |  | > 50 | 40.3 |  | > 50 | > 50 |  | 30.9 | > 50 |  | > 50 |  |  |  |  |
| CSc1nc(C)cc(Nc2ccc(O)c(CN3CCCCC3)c2)n1 | 49.1 |  | > 100 | > 100 | > 100 | > 100 |  | > 100 | 71.4 | > 100 | > 100 | > 100 |  |  |  |  |
| O=c1c2cc(I)ccc2nc(-c2cccs2)n1Nc1ccccc1 |  | 50.8 | 68.6 | 22.9 |  | 91 | > 100 | > 100 | > 100 | 74.4 |  |  |  |  |  | 0.301 |
| CCOC(=O)CCc1c(C(=O)OCC)[nH]c(/C=C2/NC(=O)C(C)=C2CC)c1C | 46.2 |  | 29.8 | 12.9 | 33.3 | 11.7 | > 100 | 31.8 |  | > 100 | 95.3 | 42.4 |  |  |  |  |
| CC(=O)NNC=N/C(C#N)=C(\N)C#N | > 100 | > 100 | > 100 | > 100 | > 100 | > 100 | > 100 | > 100 | > 100 | > 100 | > 100 |  |  |  |  |  |
| CC1=NC(=Cc2ccc(Cl)cc2)C(=O)N1n1c(-c2ccccc2)nc2ccccc2c1=O | > 100 | > 100 | > 100 | > 100 | > 100 | 96 | 60.7 | 43 | > 100 | > 100 | 57.3 |  |  |  |  |  |
| Cc1ccc(S(=O)(=O)N(c2ccccc2F)C2CCCCC2O)cc1 (stereo not given) | > 100 | > 100 | > 100 | > 100 | > 100 | > 100 | > 100 |  | > 100 | 64 | > 100 |  |  |  |  |  |
| Oc1cn(-c2ccc(Cl)cc2)nc1-c1nnc(Nc2ccccc2)o1 | 36.1 |  | 31.6 |  | 50.1 | 27.3 | 39.6 | 35.4 |  | 49.4 | 51.2 |  |  |  |  |  |
| COc1ccc(CCN2CCC(C#N)(c3ccc(OC)c(OC)c3)CC2)cc1OC | > 100 | > 100 | > 100 | > 100 | > 100 | > 100 | > 100 | > 100 | > 100 | > 100 |  | > 100 |  |  |  |  |
